The results in this text go back to patent US8933019B2, “Antiviral cell-penetrating peptides” (priority 2008, dated 2015).

One data set deals with HIV-1 93BR020. The experiment in a line: Inhibition of primary HIV-1 isolate, p24 ELISA, PBMC. It is filed as cell-based. The settings on record: subtype F, coreceptor R5X4, read-out: IC50 (μM ± SD), HIV-1 93BR020. The protocol: (§1) The inhibitory activity of peptides on infection by primary HIV-1 isolates was determined as previously described (Jiang et al., Antimicrob. Agents Chemother. 48:4349-4359, 2004). Peripheral blood mononuclear cells (PBMCs) were isolated from the blood of healthy donors at the New York Blood Center by standard density gradient centrifugation using Histopaque-1077 (Sigma-Aldrich). The cells were cultured at 37° C. for 2 hr. Nonadherent cells were collected and resuspended at 5×10^6 cells/ml RPMI-1640 medium containing 10% FBS, 5 μg/ml PHA, and 100 U/ml IL-2 (Sigma-Aldrich), followed by incubation at 37° C. for 3 days. The PHA-stimulated cells (5×10^4 cells/well) were infected with primary HIV-1 isolates at 500 TCID50 (0.01 MOI) in the absence or presence of peptide inhibitor at graded concentrations. Culture media were changed every 3 days and replaced with fresh media containing freshly prepared inhibitor. The supernatants were collected 7 days post-infection and tested for p24 antigen by ELISA (FIG. 6). The percent inhibition of p24 production, IC50 and IC90 values were calculated by the GraphPad Prism software (GraphPad Software Inc.).
(§2) NYAD-201, NYAD-202 and NYAD-203 were also tested against a set of primary HIV-1 isolates in PBMC representing mostly group M and one from group O with diverse coreceptor usage. […] The inhibitory activities of the peptides against this diverse range of primary isolates were similar, indicating its effectiveness against a wide range of HIV-1 isolates.

In the next data set the test system is HIV-1 93IN101. The description is as above. The following applies: subtype C, coreceptor R5, read-out: IC50 (μM ± SD), HIV-1 93IN101. The data set is classed as cell-based. The protocol: as §1, §2
In a further data set the test system is HIV-1 92US657. The data set is described as above. The data set is classed as cell-based. The settings on record: subtype B, coreceptor R5, read-out: IC50 (μM ± SD), HIV-1 92US657. Here is the method:
as §1, §2

In the next data set the test system is HIV-1 93RW024. Described as above. It is filed as cell-based. The following applies: subtype A, coreceptor R5X4, read-out: IC50 (μM ± SD), HIV-1 93RW024. Here is the method: as §1, §2
For another data set, the system named is HIV-1 CMU02. The description is as above. The settings on record: subtype EA, coreceptor X4, read-out: IC50 (μM ± SD), HIV-1 CMU02. The data set is classed as cell-based. Here is the method:
as §1, §2

In a further data set the test system is HIV-1 92UG029. Described as above. The data set is classed as cell-based. The settings on record: subtype A, coreceptor X4, read-out: IC50 (μM ± SD), HIV-1 92UG029. Here is the method:
as §1, §2

The next data set concerns HIV-1 RU570. Described as above. The settings on record: subtype G, coreceptor R5, read-out: IC50 (μM ± SD), HIV-1 RU570. The data set is classed as cell-based. The protocol:
as §1, §2

A further data set relates to HIV-1 98CN009. Described as above. The following applies: subtype C, coreceptor R5, read-out: IC50 (μM ± SD), HIV-1 98CN009. The data set is classed as cell-based. The protocol: as §1, §2
Another data set relates to HIV-1 BCF02. The data set is described as above. It is filed as cell-based. The following applies: (Group 0), coreceptor R5, read-out: IC50 (μM ± SD), HIV-1 BCF02. Here is the method:
as §1, §2

For the next data set, the system named is HIV-1 BaL. The data set is classed as cell-based. The following applies: laboratory strain, subtype B, PBMC, coreceptor R5; read-out: IC50 (μM ± SD), HIV-1 BaL. Here is the method: as §1
(§3) In addition, NYAD-201, NYAD-202 and NYAD-203 were also tested using several laboratory-adapted and primary isolates in MT-2 cells and PBMC (peripheral blood mononuclear cells), respectively. The inhibition of p24 production in MT-2 cells by NYAD-201 and its analogs were measured over a range of concentrations and the concentration required to inhibit 50% (IC50) of the p24 production was calculated. […] NYAD-201 and its analogs inhibited the laboratory strains with low μM potency (IC50˜2-8 μM), and both R5- and X4-tropic viruses were inhibited with similar potency.

In the next data set the test system is HIV-1 89.6. The data set is classed as cell-based. The settings on record: laboratory strain, subtype B, PBMC, coreceptor R5X4; read-out: IC50 (μM ± SD), HIV-1 89.6. The protocol: as §1, §3
The nature of data set [1]: Solubility, observation in the Jurkat cytotoxicity test. The data set is classed as physicochemical. The protocol:
(§4) Cytotoxicity was also evaluated in Jurkat cells using a Promega LDH leakage detection kit. Jurkat cells were plated at 10^4 cells/well in a volume of 200 μl. The test was performed after 30 min, 2 hr and 4 hr of exposure to the NYAD-201, NYAD-202 and NYAD-203 compounds.

A further data set has as its system Jurkat cells. The experiment in a line: Cytotoxicity, LDH leakage, Jurkat cells. It is filed as cell-based. The following applies: 30 min, 2 hr and 4 hr of exposure. The protocol: as §4
The subject of another data set is HIV-1 MN. The settings on record: read-out: IC50 (μM ± SD), HIV-1 MN; laboratory strain, subtype B, MT-2, coreceptor X4. The protocol:
(§5) The inhibitory activity of NYAD-201, and related stapled peptides on infection by laboratory-adapted HIV-1 strains was determined as previously described (Jiang et al. J Exp. Med 174:1557-1563, 1991) with minor modifications. Azidothymidine (AZT) was used as a positive control in the infectivity assays. In brief, 1×10^4 MT-2 cells were infected with HIV-1 at 100 TCID50 (50% tissue culture infective dose) (0.01 MOI [multiplicity of infection]) in 200 μl RPMI 1640 medium containing 10% FBS in the presence or absence of peptides at graded concentrations overnight. The culture supernatants were then removed and fresh media containing freshly prepared test peptide were added. On the fourth day post-infection, 100 μl of culture supernatants were collected from each well, mixed with equal volume of 5% Triton X-100 and tested for p24 antigen by ELISA.
(§6) In addition, NYAD-201, NYAD-202 and NYAD-203 were also tested using several laboratory-adapted and primary isolates in MT-2 cells and PBMC (peripheral blood mononuclear cells), respectively.

For a further data set, the system named is HIV-1 RF. The settings on record: read-out: IC50 (μM ± SD), HIV-1 RF; laboratory strain, subtype B, MT-2, coreceptor X4. The protocol: as §5, §6
The next data set deals with HIV-1 AZT-R. The settings on record: read-out: IC50 (μM ± SD), HIV-1 AZT-R; RT-resistant isolate, subtype B, MT-2, coreceptor X4. The protocol: as §5, §6
A further data set deals with HIV-1 IIIB. Here is the method: as §5, §6

Where two headings read alike, the source gives them in different places. Bridge positions count the residues as written; N and C are the ends. Square brackets hold non-standard residues; d marks the D form. Peptide text beside a SMILES is read from it. S5 = C=CCCC[C@](C)(N)C(=O)O

As to `CSCC[C@@H]1NC(=O)[C@H](Cc2c[nH]c3ccccc23)NC(=O)[C@@](C)(NC(=O)[C@H](CCCCN)NC(=O)[C@@H](NC(=O)[C@H](CCC(=O)O)NC(=O)[C@H](CCC(N)=O)NC(=O)[C@H](C)N)C(C)C)CCCC=CCCC[C@@](C)(C(=O)N[C@H](C(=O)N[C@@H](CC(C)C)C(=O)N[C@@H](CC(C)C)C(=O)N[C@H](C(=O)N[C@@H](C)C(N)=O)C(C)C)[C@@H](C)O)NC(=O)[C@H]([C@@H](C)O)NC1=O` [NYAD-201, AQEVKXWMTXTLLVA] (H-AQEVK[S5]WMT[S5]TLLVA-NH2; staple 6-10), the concentration for half-maximal inhibition (IC50) was 2.78 ± 0.57 µM in the data set with HIV-1 93BR020; 1.58 ± 0.57 µM in the data set with HIV-1 93IN101; 6.72 ± 0.98 µM in the data set on HIV-1 92US657; 9.88 ± 0.3 µM with HIV-1 93RW024; 7.36 ± 0.69 µM with HIV-1 CMU02; 7.88 ± 1.01 µM with HIV-1 92UG029. Besides, the IC50 stood at 7.48 ± 1.21 µM with HIV-1 RU570; 5.31 ± 0.83 µM in the data set on HIV-1 98CN009; 15.8 ± 3.43 µM in the data set with HIV-1 BCF02; 4.73 ± 1.92 µM in the data set with HIV-1 BaL; 5.21 ± 0.87 µM with HIV-1 89.6; 3.03 ± 0.61 µM with HIV-1 MN. The IC50 in the data set with HIV-1 RF was determined as 2.84 ± 0.63 µM; in the data set on HIV-1 AZT-R it was 8 ± 1.27 µM; in the data set on HIV-1 IIIB (read-out: IC50 (μM ± SD), HIV-1 IIIB, laboratory strain, subtype B, MT-2, coreceptor X4), 4.29 ± 0.62 µM; with HIV-1 IIIB (read-out: IC50 (μM) ± SD, antiviral activity against HIV-1 IIIB, MT-2 cells, p24 production, fourth day post-infection) it was 4.29 ± 0.62 µM. Further, in [1], the Solubility entry is listed as “not very soluble”. For the same compound, the “Cytotoxicity in Jurkat cells (LDH leakage)” value in the data set with Jurkat cells is reported as “did not demonstrate toxicity”.
